Data as given in ChEMBL document CHEMBL1201862, “PubChem BioAssay data set” (2004).
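Cultured in 96-well plates, cells were exposed to test compound for 48 hours across five concentrations. GI50 marks 50% less growth.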 The source made the active and inactive calls. Cut-off read from the data, not from the text of the source: active = GI50 up to about 1.1 µM and inactive = higher.

Key:
Assay in all cases: growth of human tumour cells (NCI), 48 h
LOX IMVI = tested on: LOX IMVI
MDA-MB-435 = tested on: MDA-MB-435
RXF 393 = tested on: RXF 393
HT-29 = tested on: HT-29
DU-145 = tested on: DU-145
786-0 = tested on: 786-0
MDA-MB-231 = tested on: MDA-MB-231
SNB-19 = tested on: SNB-19
T47D = tested on: T47D
HCC 2998 = tested on: HCC 2998
SF-268 = tested on: SF-268
PC-3 = tested on: PC-3
OVCAR-8 = tested on: OVCAR-8
OVCAR-5 = tested on: OVCAR-5
SK-MEL-5 = tested on: SK-MEL-5
Hs-578T = tested on: Hs-578T
RPMI-8226 = tested on: RPMI-8226
OVCAR-3 = tested on: OVCAR-3
TK-10 = tested on: TK-10
SW-620 = tested on: SW-620
CCRF-CEM = tested on: CCRF-CEM
OVCAR-4 = tested on: OVCAR-4
KM12 = tested on: KM12
CAKI-1 = tested on: CAKI-1
A549 = tested on: A549
NCI-H23 = tested on: NCI-H23
SK-MEL-2 = tested on: SK-MEL-2
HCT-15 = tested on: HCT-15
EKVX = tested on: EKVX
SR = tested on: SR
UO-31 = tested on: UO-31
BT-549 = tested on: BT-549
SK-MEL-28 = tested on: SK-MEL-28
MCF7 = tested on: MCF7
A498 = tested on: A498
HL-60 = tested on: HL-60
COLO 205 = tested on: COLO 205
MOLT-4 = tested on: MOLT-4
HCT-116 = tested on: HCT-116
SF-539 = tested on: SF-539
SN12C = tested on: SN12C
Malme-3M = tested on: Malme-3M
NCI-H522 = tested on: NCI-H522
MDA-N = tested on: MDA-N
K562 = tested on: K562
NCI-H226 = tested on: NCI-H226
NCI/ADR-RES = tested on: NCI/ADR-RES
UACC-257 = tested on: UACC-257
NCI-H460 = tested on: NCI-H460
U-251 = tested on: U-251
SNB-75 = tested on: SNB-75
M14 = tested on: M14
SK-OV-3 = tested on: SK-OV-3
UACC-62 = tested on: UACC-62
IGROV-1 = tested on: IGROV-1
HOP-62 = tested on: HOP-62
SF-295 = tested on: SF-295
ACHN = tested on: ACHN
HOP-92 = tested on: HOP-92

CCOC(=O)NNC(=O)NCc1cccc(CNC(=O)NNC(=O)OCC)c1
GI50 (LOX IMVI): > 100 µM (inactive)
GI50 (MDA-MB-435): > 100 µM (inactive)
GI50 (RXF 393): > 100 µM (inactive)
GI50 (HT-29): > 100 µM (inactive)
GI50 (DU-145): > 100 µM (inactive)
GI50 (786-0): > 100 µM (inactive)
GI50 (MDA-MB-231): > 100 µM (inactive)
GI50 (SNB-19): > 100 µM (inactive)
GI50 (T47D): > 100 µM (inactive)
GI50 (HCC 2998): > 100 µM (inactive)
GI50 (SF-268): > 100 µM (inactive)
GI50 (PC-3): > 100 µM (inactive)
GI50 (OVCAR-8): > 100 µM (inactive)
GI50 (OVCAR-5): > 100 µM (inactive)
GI50 (SK-MEL-5): > 100 µM (inactive)
GI50 (Hs-578T): > 100 µM (inactive)
GI50 (RPMI-8226): > 100 µM (inactive)
GI50 (OVCAR-3): > 100 µM (inactive)
GI50 (TK-10): > 100 µM (inactive)
GI50 (SW-620): > 100 µM (inactive)
GI50 (CCRF-CEM): > 100 µM (inactive)
GI50 (OVCAR-4): > 100 µM (inactive)
GI50 (KM12): > 100 µM (inactive)
GI50 (CAKI-1): > 100 µM (inactive)
GI50 (A549): > 100 µM (inactive)
GI50 (NCI-H23): > 100 µM (inactive)
GI50 (SK-MEL-2): > 100 µM (inactive)
GI50 (HCT-15): > 100 µM
GI50 (EKVX): > 100 µM (inactive)
GI50 (SR): > 100 µM (inactive)
GI50 (UO-31): > 100 µM (inactive)
GI50 (BT-549): > 100 µM (inactive)
GI50 (SK-MEL-28): > 100 µM (inactive)
GI50 (MCF7): > 100 µM (inactive)
GI50 (A498): > 100 µM (inactive)
GI50 (HL-60): > 100 µM (inactive)
GI50 (COLO 205): > 100 µM (inactive)
GI50 (MOLT-4): > 100 µM (inactive)
GI50 (HCT-116): > 100 µM (inactive)
GI50 (SF-539): > 100 µM (inactive)
GI50 (SN12C): > 100 µM (inactive)
GI50 (Malme-3M): > 100 µM (inactive)
GI50 (NCI-H522): > 100 µM (inactive)
GI50 (MDA-N): > 100 µM (inactive)
GI50 (K562): > 100 µM (inactive)
GI50 (NCI-H226): > 100 µM (inactive)
GI50 (NCI/ADR-RES): > 100 µM (inactive)
GI50 (UACC-257): > 100 µM (inactive)
GI50 (NCI-H460): > 100 µM (inactive)
GI50 (U-251): > 100 µM (inactive)
GI50 (SNB-75): > 100 µM (inactive)
GI50 (M14): > 100 µM (inactive)
GI50 (SK-OV-3): > 100 µM (inactive)
GI50 (UACC-62): > 100 µM (inactive)

CCOC(=O)Oc1ccc2c(c1)c(=O)c1c(NCCN(CC)CC)ccc3nnn2c31
GI50 (LOX IMVI): 1.18 µM (inactive)
GI50 (MDA-MB-435): 3.67 µM (inactive)
GI50 (RXF 393): 6.08 µM (inactive)
GI50 (IGROV-1): 0.519 µM (active)
GI50 (HT-29): 1.29 µM (inactive)
GI50 (DU-145): 1.89 µM (inactive)
GI50 (HOP-62): 1.24 µM (inactive)
GI50 (786-0): 0.488 µM (active)
GI50 (MDA-MB-231): 2.48 µM (inactive)
GI50 (SNB-19): 1.21 µM (inactive)
GI50 (T47D): 14.8 µM (inactive)
GI50 (HCC 2998): 2.94 µM (inactive)
GI50 (SF-268): 1.43 µM (inactive)
GI50 (PC-3): 2.19 µM (inactive)
GI50 (OVCAR-8): 0.577 µM (active)
GI50 (OVCAR-5): 10.6 µM (inactive)
GI50 (SK-MEL-5): 1.7 µM (inactive)
GI50 (Hs-578T): 5.11 µM (inactive)
GI50 (RPMI-8226): 0.908 µM (active)
GI50 (OVCAR-3): 4.46 µM (inactive)
GI50 (TK-10): 3.19 µM (inactive)
GI50 (SW-620): 0.438 µM (active)
GI50 (CCRF-CEM): 0.172 µM (active)
GI50 (OVCAR-4): 2.55 µM (inactive)
GI50 (KM12): 2.32 µM (inactive)
GI50 (SF-295): 3.78 µM (inactive)
GI50 (A549): 0.2 µM (active)
GI50 (NCI-H23): 2.48 µM (inactive)
GI50 (SK-MEL-2): 13.2 µM (inactive)
GI50 (HCT-15): 0.841 µM
GI50 (EKVX): 6.41 µM (inactive)
GI50 (SR): 0.113 µM (active)
GI50 (UO-31): 0.165 µM (active)
GI50 (BT-549): 10.5 µM (inactive)
GI50 (SK-MEL-28): 11.7 µM (inactive)
GI50 (MCF7): 0.392 µM (active)
GI50 (A498): 6.52 µM (inactive)
GI50 (ACHN): 0.406 µM (active)
GI50 (COLO 205): 1.01 µM (active)
GI50 (MOLT-4): < 0.0166 µM (active)
GI50 (HCT-116): 0.405 µM (active)
GI50 (SF-539): 0.748 µM (active)
GI50 (SN12C): 0.809 µM (active)
GI50 (HOP-92): 4.22 µM (inactive)
GI50 (Malme-3M): 2.78 µM (inactive)
GI50 (NCI-H522): 0.69 µM (active)
GI50 (MDA-N): 2.94 µM (inactive)
GI50 (K562): 0.948 µM (active)
GI50 (NCI-H226): 0.711 µM (active)
GI50 (NCI/ADR-RES): 2.39 µM (inactive)
GI50 (UACC-257): 7.35 µM (inactive)
GI50 (NCI-H460): < 0.0209 µM (active)
GI50 (U-251): 1.73 µM (inactive)
GI50 (M14): 5.2 µM (inactive)
GI50 (SK-OV-3): 8 µM (inactive)
GI50 (UACC-62): 11.5 µM (inactive)

Cc1c(C)c2c(c(N)c1C#N)C(=O)N(NC(=S)Nc1ccccc1)C2=O
GI50 (MDA-MB-435): > 100 µM (inactive)
GI50 (RXF 393): 46 µM (inactive)
GI50 (IGROV-1): 56.5 µM (inactive)
GI50 (HT-29): 60.1 µM (inactive)
GI50 (DU-145): > 100 µM (inactive)
GI50 (786-0): 44.1 µM (inactive)
GI50 (MDA-MB-231): > 100 µM (inactive)
GI50 (SNB-19): 56.6 µM (inactive)
GI50 (T47D): > 100 µM (inactive)
GI50 (HCC 2998): > 100 µM (inactive)
GI50 (SF-268): 31.4 µM (inactive)
GI50 (PC-3): > 100 µM (inactive)
GI50 (OVCAR-8): 45 µM (inactive)
GI50 (OVCAR-5): > 100 µM (inactive)
GI50 (SK-MEL-5): 90.4 µM (inactive)
GI50 (Hs-578T): 42.1 µM (inactive)
GI50 (RPMI-8226): 43.3 µM (inactive)
GI50 (OVCAR-3): > 100 µM (inactive)
GI50 (TK-10): > 100 µM (inactive)
GI50 (SW-620): 57.5 µM (inactive)
GI50 (CCRF-CEM): 62.5 µM (inactive)
GI50 (OVCAR-4): > 100 µM (inactive)
GI50 (KM12): 91.4 µM (inactive)
GI50 (CAKI-1): 18.2 µM (inactive)
GI50 (SF-295): 60.8 µM (inactive)
GI50 (A549): > 100 µM (inactive)
GI50 (NCI-H23): > 100 µM (inactive)
GI50 (SK-MEL-2): > 100 µM (inactive)
GI50 (HCT-15): 67.8 µM
GI50 (EKVX): > 100 µM (inactive)
GI50 (SR): 22.4 µM (inactive)
GI50 (UO-31): 44.4 µM (inactive)
GI50 (BT-549): > 100 µM (inactive)
GI50 (SK-MEL-28): > 100 µM (inactive)
GI50 (MCF7): > 100 µM (inactive)
GI50 (HL-60): 86.9 µM (inactive)
GI50 (ACHN): 50 µM (inactive)
GI50 (COLO 205): 79.4 µM (inactive)
GI50 (MOLT-4): 20.3 µM (inactive)
GI50 (HCT-116): 52.6 µM (inactive)
GI50 (SF-539): 49.8 µM (inactive)
GI50 (SN12C): 69.7 µM (inactive)
GI50 (HOP-92): > 100 µM (inactive)
GI50 (Malme-3M): 72.9 µM (inactive)
GI50 (NCI-H522): 52.7 µM (inactive)
GI50 (MDA-N): > 100 µM (inactive)
GI50 (K562): > 100 µM (inactive)
GI50 (NCI-H226): 42.8 µM (inactive)
GI50 (NCI/ADR-RES): 71.3 µM (inactive)
GI50 (UACC-257): > 100 µM (inactive)
GI50 (NCI-H460): 61.2 µM (inactive)
GI50 (U-251): > 100 µM (inactive)
GI50 (SNB-75): 39 µM (inactive)
GI50 (M14): > 100 µM (inactive)
GI50 (SK-OV-3): > 100 µM (inactive)
GI50 (UACC-62): > 100 µM (inactive)
